ChEMBL document CHEMBL1795227, “Methanesulfonamido-cyclohexylamine derivatives of 2,4-diaminopyrimidine as potent ALK inhibitors” (Bioorg Med Chem Lett, 2011)
Each block holds one molecule with its values, some of them ahead of it. Activity calls are given as the source filed them. The rule behind the calls is not given here.

Assays:
[1] = tested on: Mus musculus; assay: Toxicity in mouse assessed as overt signs at 30 mg/kg, po bid; format: organism-based; parameters: dose 30 mg/kg, route oral; settings: in vivo
[2] = tested on: Serine/threonine-protein kinase B-raf (Homo sapiens), P15056 [V600E]; assay: Inhibition of BRAF V600E at 1 uM
[3] = target: Mitogen-activated protein kinase 14 (Homo sapiens) (UniProt Q16539); assay: Inhibition of p38 alpha at 1 uM
[4] = target: Receptor tyrosine-protein kinase erbB-4 (Homo sapiens) (UniProt Q15303); assay: Inhibition of ERBB4 at 1 uM
[5] = Half life in CD1 mouse at 1 mg/kg, iv; format: ADME, organism-based; parameters: dose 1 mg/kg, route intravenous; settings: in vivo
[6] = target: ALK tyrosine kinase receptor (Homo sapiens, UniProt Q9UM73); assay: Inhibition of ALK
[7] = tested on: Mus musculus; assay: Toxicity in mouse assessed as overt signs at 55 mg/kg, po bid; format: organism-based; parameters: dose 55 mg/kg, route oral; settings: in vivo
[8] = target: Receptor tyrosine-protein kinase erbB-2 (Homo sapiens) (UniProt P04626); assay: Inhibition of ERBB2 at 1 uM
[9] = target: Ephrin type-A receptor 3 (Homo sapiens) (UniProt P29320); assay: Inhibition of EPHA3 at 1 uM
[10] = target: RAC-beta serine/threonine-protein kinase (Homo sapiens) (UniProt P31751); assay: Inhibition of AKT2 at 1 uM
[11] = AUC (0 to t) in CD1 mouse at 1 mg/kg, iv; format: ADME, organism-based; parameters: dose 1 mg/kg, route intravenous; settings: plasma
[12] = Clearance in Sprague-Dawley rat at 1 mg/kg, iv; format: ADME, organism-based; parameters: dose 1 mg/kg, route intravenous; settings: in vivo
[13] = Drug level in tumor of Karpas-299 cells xenografted mouse at 30 mg/kg, po administered as single dose measured after 2 hrs; format: ADME, organism-based, Neoplasm; parameters: dose 30 mg/kg, route oral; settings: read-out: Drug uptake
[14] = tested on: Tyrosine-protein kinase ABL1 (Homo sapiens), P00519 [T315I]; assay: Inhibition of ABL1 T315I at 1 uM
[15] = tested on: Mus musculus; assay: Toxicity in mouse assessed as body weight loss at 55 mg/kg, po bid; format: organism-based; parameters: dose 55 mg/kg, route oral; settings: in vivo
[16] = target: Tyrosine-protein kinase ABL1 (Homo sapiens) (UniProt P00519); assay: Inhibition of ABL1 at 1 uM
[17] = tested on: Mus musculus; assay: Toxicity in mouse assessed as body weight loss at 30 mg/kg, po bid; format: organism-based; parameters: dose 30 mg/kg, route oral; settings: in vivo
[18] = tested on: KARPAS-299; assay: Antitumor activity against human KARPAS299 cells xenografted in mouse assessed as tumor growth inhibition at 30 mg/kg, po bid; format: functional; settings: read-out: GI
[19] = Tmax in Sprague-Dawley rat at 5 mg/kg, po; format: ADME, organism-based; parameters: dose 5 mg/kg, route oral; settings: in vivo
[20] = Tmax in CD1 mouse at 10 mg/kg, po; format: ADME, organism-based; parameters: dose 10 mg/kg, route oral; settings: in vivo
[21] = Plasma concentration in Karpas-299 cells xenografted mouse at 30 mg/kg, po administered as single dose measured after 12 hrs; format: ADME, organism-based; parameters: dose 30 mg/kg, route oral
[22] = tested on: Mus musculus; assay: Inhibition of NPM-ALK autophosphorylation in Karpas-299 cells xenografted mouse at 30 mg/kg, po administered as single dose measured after 6 hrs; format: functional, organism-based; parameters: dose 30 mg/kg
[23] = Plasma concentration in Karpas-299 cells xenografted mouse at 30 mg/kg, po administered as single dose measured after 6 hrs; format: ADME, organism-based; parameters: dose 30 mg/kg, route oral
[24] = target: High affinity nerve growth factor receptor (Homo sapiens) (UniProt P04629); assay: Inhibition of TRKA at 1 uM
[25] = target: Mitogen-activated protein kinase 1 (Homo sapiens) (UniProt P28482); assay: Inhibition of ERK2 at 1 uM
[26] = Half life in CD1 mouse at 10 mg/kg, po; format: ADME, organism-based; parameters: dose 10 mg/kg, route oral; settings: in vivo
[27] = Drug level in tumor of Karpas-299 cells xenografted mouse at 30 mg/kg, po administered as single dose measured after 12 hrs; format: ADME, organism-based, Neoplasm; parameters: dose 30 mg/kg, route oral; settings: read-out: Drug uptake
[28] = Half life in Sprague-Dawley rat at 1 mg/kg, iv; format: ADME, organism-based; parameters: dose 1 mg/kg, route intravenous; settings: in vivo
[29] = Oral bioavailability in Sprague-Dawley rat at 5 mg/kg; format: ADME, organism-based; settings: in vivo
[30] = Drug level in tumor of Karpas-299 cells xenografted mouse at 30 mg/kg, po administered as single dose measured after 6 hrs; format: ADME, organism-based, Neoplasm; parameters: dose 30 mg/kg, route oral; settings: read-out: Drug uptake
[31] = AUC (0 to t) in CD1 mouse at 10 mg/kg, po; format: ADME, organism-based; parameters: dose 10 mg/kg, route oral; settings: plasma
[32] = Volume of distribution in Sprague-Dawley rat at 1 mg/kg, iv; format: ADME, organism-based; parameters: dose 1 mg/kg, route intravenous; settings: in vivo
[33] = Oral bioavailability in CD1 mouse at 10 mg/kg; format: ADME, organism-based; settings: in vivo
[34] = target: Serine/threonine-protein kinase pim-2 (Homo sapiens) (UniProt Q9P1W9); assay: Inhibition of PIM2 at 1 uM
[35] = Cmax in CD1 mouse at 10 mg/kg, po; format: ADME, organism-based; parameters: dose 10 mg/kg, route oral; settings: in vivo
[36] = Plasma concentration in Karpas-299 cells xenografted mouse at 30 mg/kg, po administered as single dose measured after 2 hrs; format: ADME, organism-based; parameters: dose 30 mg/kg, route oral
[37] = target: Tyrosine-protein kinase receptor UFO (Homo sapiens) (UniProt P30530); assay: Inhibition of AXL at 1 uM
[38] = target: Aurora kinase B (Homo sapiens) (UniProt Q96GD4); assay: Inhibition of AURKB at 1 uM
[39] = Clearance in CD1 mouse at 1 mg/kg, iv; format: ADME, organism-based; parameters: dose 1 mg/kg, route intravenous; settings: in vivo
[40] = tested on: Mus musculus; assay: Inhibition of NPM-ALK autophosphorylation in Karpas-299 cells xenografted mouse at 30 mg/kg, po administered as single dose measured after 2 hrs; format: functional; settings: KARPAS-299, 2 h
[41] = target: 3-phosphoinositide-dependent protein kinase 1 (Homo sapiens) (UniProt O15530); assay: Inhibition of PDPK1 at 1 uM
[42] = target: Tyrosine-protein kinase ITK/TSK (Homo sapiens) (UniProt Q08881); assay: Inhibition of ITK at 1 uM
[43] = tested on: KARPAS-299; assay: Antitumor activity against human KARPAS299 cells xenografted in mouse assessed as tumor growth inhibition at 55 mg/kg, po bid; format: functional; settings: read-out: GI
[44] = Volume of distribution in CD1 mouse at 1 mg/kg, iv; format: ADME, organism-based; parameters: dose 1 mg/kg, route intravenous; settings: in vivo
[45] = AUC (0 to t) in Sprague-Dawley rat at 5 mg/kg, po; format: ADME, organism-based; parameters: dose 5 mg/kg, route oral; settings: plasma
[46] = AUC (0 to t) in Sprague-Dawley rat at 1 mg/kg, iv; format: ADME, organism-based; parameters: dose 1 mg/kg, route intravenous; settings: plasma
[47] = target: Hepatocyte growth factor receptor (Homo sapiens) (UniProt P08581); assay: Inhibition of MET at 1 uM
[48] = Cmax in Sprague-Dawley rat at 5 mg/kg, po; format: ADME, organism-based; parameters: dose 5 mg/kg, route oral; settings: in vivo

Serine/threonine-protein kinase B-raf (Homo sapiens), P15056 [V600E], sequence (P15056 whole entry V600E): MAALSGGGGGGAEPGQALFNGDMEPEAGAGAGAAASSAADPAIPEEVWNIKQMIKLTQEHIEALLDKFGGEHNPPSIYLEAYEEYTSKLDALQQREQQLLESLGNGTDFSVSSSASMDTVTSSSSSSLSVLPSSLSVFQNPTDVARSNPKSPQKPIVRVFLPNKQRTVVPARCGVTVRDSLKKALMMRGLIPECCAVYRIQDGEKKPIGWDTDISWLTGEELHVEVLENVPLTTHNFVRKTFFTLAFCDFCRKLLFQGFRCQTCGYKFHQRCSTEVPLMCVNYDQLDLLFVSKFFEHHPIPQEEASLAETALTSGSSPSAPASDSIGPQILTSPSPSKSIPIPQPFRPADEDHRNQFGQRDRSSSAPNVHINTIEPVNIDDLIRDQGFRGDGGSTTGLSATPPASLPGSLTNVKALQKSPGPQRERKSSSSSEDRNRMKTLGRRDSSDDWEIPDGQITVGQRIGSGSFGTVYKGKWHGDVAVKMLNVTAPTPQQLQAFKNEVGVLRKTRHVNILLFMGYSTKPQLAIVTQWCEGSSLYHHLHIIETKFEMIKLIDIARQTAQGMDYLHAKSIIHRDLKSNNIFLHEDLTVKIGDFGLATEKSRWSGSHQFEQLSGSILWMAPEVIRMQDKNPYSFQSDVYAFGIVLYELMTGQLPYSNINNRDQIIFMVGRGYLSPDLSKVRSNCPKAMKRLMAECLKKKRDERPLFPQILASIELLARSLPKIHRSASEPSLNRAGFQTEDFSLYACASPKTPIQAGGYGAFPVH
Receptor tyrosine-protein kinase erbB-2 (Homo sapiens), sequence (P04626 whole entry): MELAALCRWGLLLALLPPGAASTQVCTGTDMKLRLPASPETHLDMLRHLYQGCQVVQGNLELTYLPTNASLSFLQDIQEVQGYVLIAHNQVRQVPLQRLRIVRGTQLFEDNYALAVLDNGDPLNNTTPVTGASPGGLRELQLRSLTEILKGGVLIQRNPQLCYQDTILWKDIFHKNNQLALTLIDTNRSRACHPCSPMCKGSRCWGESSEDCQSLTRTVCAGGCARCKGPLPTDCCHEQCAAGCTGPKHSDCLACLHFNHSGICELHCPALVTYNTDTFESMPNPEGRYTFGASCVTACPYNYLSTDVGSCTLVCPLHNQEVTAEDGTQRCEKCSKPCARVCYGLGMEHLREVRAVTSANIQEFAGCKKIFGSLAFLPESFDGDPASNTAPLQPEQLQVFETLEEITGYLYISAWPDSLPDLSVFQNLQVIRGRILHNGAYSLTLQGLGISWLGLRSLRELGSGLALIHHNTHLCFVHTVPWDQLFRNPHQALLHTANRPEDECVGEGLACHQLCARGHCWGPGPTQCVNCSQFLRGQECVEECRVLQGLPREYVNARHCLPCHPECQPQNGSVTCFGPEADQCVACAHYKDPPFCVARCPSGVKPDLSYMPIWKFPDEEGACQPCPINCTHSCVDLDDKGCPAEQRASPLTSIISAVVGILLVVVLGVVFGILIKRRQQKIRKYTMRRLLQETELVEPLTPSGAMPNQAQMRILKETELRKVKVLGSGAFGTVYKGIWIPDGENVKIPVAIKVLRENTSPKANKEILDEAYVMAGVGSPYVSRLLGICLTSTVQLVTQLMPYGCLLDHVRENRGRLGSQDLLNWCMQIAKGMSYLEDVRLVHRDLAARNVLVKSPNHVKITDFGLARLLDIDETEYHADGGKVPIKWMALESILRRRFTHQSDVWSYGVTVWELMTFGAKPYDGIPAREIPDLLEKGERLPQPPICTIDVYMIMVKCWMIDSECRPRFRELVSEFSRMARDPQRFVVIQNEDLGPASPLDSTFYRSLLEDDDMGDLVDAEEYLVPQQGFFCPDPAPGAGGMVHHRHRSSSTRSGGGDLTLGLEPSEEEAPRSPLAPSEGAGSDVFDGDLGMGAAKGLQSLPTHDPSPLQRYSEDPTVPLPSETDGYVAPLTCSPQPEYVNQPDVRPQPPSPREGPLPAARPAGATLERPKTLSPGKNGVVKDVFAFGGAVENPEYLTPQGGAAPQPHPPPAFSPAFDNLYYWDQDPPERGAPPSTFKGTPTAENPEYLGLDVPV
Tyrosine-protein kinase ITK/TSK (Homo sapiens), sequence (Q08881 whole entry): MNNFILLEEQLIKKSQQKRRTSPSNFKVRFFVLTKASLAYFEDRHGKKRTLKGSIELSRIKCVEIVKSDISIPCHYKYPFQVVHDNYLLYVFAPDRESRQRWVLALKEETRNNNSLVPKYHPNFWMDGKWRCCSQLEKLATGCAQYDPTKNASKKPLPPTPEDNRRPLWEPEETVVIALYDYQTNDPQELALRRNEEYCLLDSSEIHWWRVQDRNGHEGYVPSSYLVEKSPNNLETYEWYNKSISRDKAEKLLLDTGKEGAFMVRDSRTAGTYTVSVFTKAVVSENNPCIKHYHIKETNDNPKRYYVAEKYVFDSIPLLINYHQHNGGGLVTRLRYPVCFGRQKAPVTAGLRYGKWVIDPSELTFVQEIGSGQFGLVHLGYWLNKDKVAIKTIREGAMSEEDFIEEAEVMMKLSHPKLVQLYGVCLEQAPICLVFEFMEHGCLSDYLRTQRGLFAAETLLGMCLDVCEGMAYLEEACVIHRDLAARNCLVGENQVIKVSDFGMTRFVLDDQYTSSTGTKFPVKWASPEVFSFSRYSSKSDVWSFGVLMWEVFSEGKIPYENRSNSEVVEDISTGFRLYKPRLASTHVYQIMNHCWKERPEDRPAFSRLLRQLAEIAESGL
3-phosphoinositide-dependent protein kinase 1 (Homo sapiens), sequence (O15530 whole entry): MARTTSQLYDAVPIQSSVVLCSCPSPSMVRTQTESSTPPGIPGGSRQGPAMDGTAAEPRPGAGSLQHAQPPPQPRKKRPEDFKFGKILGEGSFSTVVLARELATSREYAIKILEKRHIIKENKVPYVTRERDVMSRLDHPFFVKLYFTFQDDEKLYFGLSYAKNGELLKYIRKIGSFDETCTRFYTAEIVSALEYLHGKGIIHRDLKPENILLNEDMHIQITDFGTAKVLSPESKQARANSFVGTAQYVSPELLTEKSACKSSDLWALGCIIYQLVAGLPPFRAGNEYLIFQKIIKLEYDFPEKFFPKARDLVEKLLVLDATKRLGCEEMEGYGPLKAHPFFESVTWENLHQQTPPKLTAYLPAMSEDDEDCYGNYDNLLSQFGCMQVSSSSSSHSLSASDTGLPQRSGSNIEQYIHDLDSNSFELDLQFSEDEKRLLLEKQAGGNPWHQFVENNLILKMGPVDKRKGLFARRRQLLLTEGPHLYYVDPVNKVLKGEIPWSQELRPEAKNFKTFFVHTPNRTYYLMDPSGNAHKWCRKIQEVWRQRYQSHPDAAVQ
High affinity nerve growth factor receptor (Homo sapiens), sequence (P04629 33-796 limits assumed): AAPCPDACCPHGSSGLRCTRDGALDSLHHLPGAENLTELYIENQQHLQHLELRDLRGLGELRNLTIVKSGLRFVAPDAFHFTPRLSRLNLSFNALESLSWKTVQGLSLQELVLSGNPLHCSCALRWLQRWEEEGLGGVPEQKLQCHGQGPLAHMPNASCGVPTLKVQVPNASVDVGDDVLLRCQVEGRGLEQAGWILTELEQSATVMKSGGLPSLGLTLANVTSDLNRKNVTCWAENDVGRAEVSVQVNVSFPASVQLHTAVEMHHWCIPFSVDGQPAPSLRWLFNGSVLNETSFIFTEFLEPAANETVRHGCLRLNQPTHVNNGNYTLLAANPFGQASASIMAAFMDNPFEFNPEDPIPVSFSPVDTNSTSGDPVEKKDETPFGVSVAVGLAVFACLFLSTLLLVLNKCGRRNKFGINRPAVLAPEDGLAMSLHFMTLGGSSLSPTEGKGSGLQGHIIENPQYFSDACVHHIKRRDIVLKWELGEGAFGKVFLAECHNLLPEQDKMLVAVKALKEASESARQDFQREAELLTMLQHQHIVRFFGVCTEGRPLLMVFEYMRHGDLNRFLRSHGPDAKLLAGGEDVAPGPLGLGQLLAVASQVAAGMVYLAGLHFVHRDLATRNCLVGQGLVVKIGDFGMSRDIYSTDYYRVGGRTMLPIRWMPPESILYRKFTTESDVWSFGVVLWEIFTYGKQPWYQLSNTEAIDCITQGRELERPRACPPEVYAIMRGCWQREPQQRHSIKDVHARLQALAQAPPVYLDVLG
RAC-beta serine/threonine-protein kinase (Homo sapiens), sequence (P31751 whole entry): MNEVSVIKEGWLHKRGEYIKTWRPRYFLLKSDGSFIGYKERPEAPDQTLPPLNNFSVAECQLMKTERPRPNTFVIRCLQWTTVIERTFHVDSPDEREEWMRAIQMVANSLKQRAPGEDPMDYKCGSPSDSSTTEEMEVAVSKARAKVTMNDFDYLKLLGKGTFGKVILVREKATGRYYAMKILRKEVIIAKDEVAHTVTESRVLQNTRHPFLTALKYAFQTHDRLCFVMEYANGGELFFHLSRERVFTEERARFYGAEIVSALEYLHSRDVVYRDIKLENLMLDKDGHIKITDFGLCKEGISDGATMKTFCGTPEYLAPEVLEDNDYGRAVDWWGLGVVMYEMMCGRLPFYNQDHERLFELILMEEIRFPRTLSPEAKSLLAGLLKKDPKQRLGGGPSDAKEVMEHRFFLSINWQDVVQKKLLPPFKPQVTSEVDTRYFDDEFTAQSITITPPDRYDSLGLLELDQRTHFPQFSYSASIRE
Aurora kinase B (Homo sapiens), sequence (Q96GD4 whole entry): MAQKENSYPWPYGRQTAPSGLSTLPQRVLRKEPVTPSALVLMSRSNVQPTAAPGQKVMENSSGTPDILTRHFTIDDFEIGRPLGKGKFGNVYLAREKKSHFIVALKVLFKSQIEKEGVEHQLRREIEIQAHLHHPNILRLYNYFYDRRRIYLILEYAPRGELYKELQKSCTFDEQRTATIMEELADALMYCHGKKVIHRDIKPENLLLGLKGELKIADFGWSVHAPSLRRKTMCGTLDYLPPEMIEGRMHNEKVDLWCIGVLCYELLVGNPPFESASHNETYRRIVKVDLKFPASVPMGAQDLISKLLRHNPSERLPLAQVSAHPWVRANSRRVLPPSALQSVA

- inhibition [2]: < 65%
- inhibition [3]: < 65%
- inhibition [4]: 74%
- half-life [5]: 0.9 h
- IC50 [6]: 6 nM
- inhibition [8]: < 65%
- inhibition [9]: < 65%
- inhibition [10]: < 65%
- AUC(0-t) [11]: 2930 ng·h/mL
- clearance [12]: 217 mL/min/kg
- concentration at 2 h [13]: 695 ng/g
- inhibition [14]: < 65%
- inhibition [16]: < 65%
- Tmax [19]: 1.8 h
- Tmax [20]: 1 h
- concentration at 12 h [21]: 2650 ng/mL
- concentration at 6 h [23]: 3680 ng/mL
- inhibition [24]: < 65%
- inhibition [25]: < 65%
- half-life [26]: 1 h
- concentration at 12 h [27]: 279 ng/g
- half-life [28]: 0.6 h
- bioavailability [29]: 24%
- concentration at 6 h [30]: 602 ng/g
- AUC(0-t) [31]: 8200 ng·h/mL
- Vd [32]: 10.1 L/kg
- bioavailability [33]: 28%
- inhibition [34]: < 65%
- Cmax [35]: 2880 ng/mL
- concentration at 2 h [36]: 2740 ng/mL
- inhibition [37]: < 65%
- inhibition [38]: < 65%
- clearance [39]: 5.6 mL/min/kg
- inhibition [41]: < 65%
- inhibition [42]: < 65%
- Vd [44]: 0.4 L/kg
- AUC(0-t) [45]: 110 ng·h/mL
- AUC(0-t) [46]: 72 ng·h/mL
- inhibition [47]: < 65%
- Cmax [48]: 23 ng/mL
SMILES: COCCN1CCc2cc(Nc3ncc(Cl)c(N[C@@H]4CCCC[C@H]4NS(C)(=O)=O)n3)c(OC)cc2CC1
- Activity [1]: Non-toxic
- Activity [7]: Non-toxic
- Activity [15]: Non-toxic
- Activity [17]: Non-toxic
- inhibition in vivo at 30 mg/kg [18]: 45%
- inhibition [22]: inactive
- inhibition in vivo at 30 mg/kg [40]: 75%
- inhibition in vivo at 55 mg/kg [43]: 54%

- inhibition [2]: < 65%
- inhibition [3]: < 65%
- inhibition [4]: 98%
- IC50 [6]: 3 nM
- inhibition [8]: < 65%
- inhibition [9]: < 65%
- inhibition [10]: < 65%
- inhibition [14]: < 65%
- inhibition [16]: < 65%
- inhibition [24]: < 65%
- inhibition [25]: < 65%
- inhibition [34]: < 65%
- inhibition [37]: < 65%
- inhibition [38]: < 65%
- inhibition [41]: < 65%
- inhibition [42]: < 65%
- inhibition [47]: < 65%
SMILES: COCCN1CCc2cc(Nc3ncc(Cl)c(N[C@@H]4CCCC[C@H]4N(C)S(C)(=O)=O)n3)c(OC)cc2CC1
